Source: patent US10729130B2, “Nematicidal compositions and methods of using them” (Eden Research plc, priority 2004, dated 2020)
Values belong to the compound of their own block, whether it stands above or below them.

Assays:
Type in all cases: physicochemical
[1] = Kinetics of terpene loading into various particles at room temperature or 37° C.; design: key: +: “free terpene” refers to the visible presence of terpene in the centrifuged reaction mixture; −: The absence of free terpene indicates complete absorption of the terpene by the particles
Method: 1% Tween-80 solution was prepared by sonicating 1 ml 10% Tween-80 in 10 ml water. • Baker's YP was prepared by mixing 5 g of bakers YP in 20 ml 1% Tween-80. • Nutrex™ YGP suspension was prepared by mixing 2 g Nutrex™ YGP in 20 ml 1% Tween-80. • SAF Mannan™ suspension was prepared by mixing 2 g SAF Mannan™ in 20 ml 1% Tween-80.
The reactions were incubated for 1, 3, 6, 9 and 24 hours at room temperature or 37° C. After incubation samples were centrifuged at 14,000×g for 10 minutes and the appearance of free terpene floating on the aqueous layer was scored. The highest volume of terpene absorbed by the particles as evidenced by the absence of free terpene was recorded as the volume of absorbed terpene emulsion. Colour of the encapsulated pellet was scored at 24 hours.

[2] = Maximal terpene loading at high Baker's yeast particle levels (free terpene score); design: key to Free Terpene: +: “free terpene” refers to the visible presence of terpene in the centrifuged reaction mixture; −: The absence of free terpene indicates complete absorption of the terpene by the particles; conditions: for terpene emulsion absorbed and encapsulated per 125 mg of YP: Baker's YP 250 mg/ml; for Free Terpene: 500 μl 250 mg/ml YP
Method: Samples were centrifuged at 14,000×g for 10 minutes and the appearance of free terpene floating on the aqueous layer was scored. The expression “free terpene” refers to the visible presence of terpene in the centrifuged reaction mixture. The absence of free terpene indicates complete absorption of the terpene by the YP. The highest volume of terpene absorbed by the YP, as evidenced by the absence of free terpene, was recorded as the maximal volume of absorbed terpene emulsion.

[3] = Screen of commercially available particles for terpene absorption (free terpene score); design: key: +: “free terpene” refers to the visible presence of terpene in the centrifuged reaction mixture; −: The absence of free terpene indicates complete absorption of the terpene by the particles; conditions: overnight
Method: The following protocol was performed to analyse the loading properties of different types of particles. The particles studied were Baker's Yeast Particles (Sigma Chemical Corp., St. Louis, Mo.), Nutrex™ Walls (Sensient Technologies, Milwaukee, Wis.), SAF-Mannan™ (SAF Agri, Minneapolis, Minn.), Nutricept Walls™ (Nutricepts Inc., Burnsville, Minn.), Levacan™ (Savory Systems International, Inc., Branchburg, N.J.) and WGP™ (Alpha-beta Technology, Inc. Worcester, Mass.).
The YP suspensions were prepared as follows: • Baker's yeast particle suspension (YP) was prepared by mixing 250 mg YP/ml 1% Tween 80. • Nutrex suspension was prepared by mixing 163 mg Nutrex YGP/ml 1% Tween 80. • SAF Mannan suspension was prepared by mixing 234 mg Biospringer YGP/ml 1% Tween 80. • Nutricepts suspension was prepared by mixing 99 mg Nutricepts YGP/ml 1% Tween 80. • Levacan suspension was prepared by mixing 217 mg Lev YGP/ml 1% Tween 80. • WGP suspension was prepared by mixing 121 mg WGP YGP/ml 1% Tween 80.
The packed volume of the above particles is identical which means that equal numbers of particles were assayed.
Loading reactions were set up as shown in Table 25 and left to incubate overnight. Samples were centrifuged at 14,000×g for 10 minutes and the appearance of free terpene floating on the aqueous layer and the color of the encapsulated terpenes in the pellet was scored. The highest volume of terpene absorbed by particles as evidenced by the absence of free terpene was recorded as the volume of absorbed terpene emulsion.

[4] = Terpene loading with surfactant, Tween-80:terpene ratio (free terpene score); design: key: Sl = slight; conditions: 250 mg/ml YP
Method: Samples were centrifuged at 14,000×g for 10 minutes and the appearance of free terpene floating on the aqueous layer was scored. The expression “free terpene” refers to the visible presence of terpene in the centrifuged reaction mixture. The absence of free terpene indicates complete absorption and encapsulation of the terpene by the YP. The highest volume of terpene absorbed by the YP, as evidenced by the absence of free terpene, was recorded as the maximal volume of absorbed terpene emulsion.

[5] = 37 ° C., Bakers 250 mg/ml, emulsion 788 μl L-carvone or 525 μl Citral, 1 hr
[6] = 37 ° C., Bakers 250 mg/ml, emulsion 788 μl L-carvone or 525 μl Citral, 3 hr
[7] = 37 ° C., Bakers 250 mg/ml, emulsion 788 μl L-carvone or 525 μl Citral, 6 hr
[8] = 37 ° C., Bakers 250 mg/ml, emulsion 788 μl L-carvone or 525 μl Citral, 9 hr
[9] = 37 ° C., Bakers 250 mg/ml, emulsion 788 μl L-carvone or 525 μl Citral, 24 hr
[10] = 37 ° C., Nutrex 100 mg/ml, emulsion 1050 μl L-carvone or 788 μl Citral, 1 hr
[11] = 37 ° C., Nutrex 100 mg/ml, emulsion 1050 μl L-carvone or 788 μl Citral, 3 hr
[12] = 37 ° C., Nutrex 100 mg/ml, emulsion 1050 μl L-carvone or 788 μl Citral, 6 hr
[13] = 37 ° C., Nutrex 100 mg/ml, emulsion 1050 μl L-carvone or 788 μl Citral, 9 hr
[14] = 37 ° C., Nutrex 100 mg/ml, emulsion 1050 μl L-carvone or 788 μl Citral, 24 hr
[15] = 37 ° C., SAF 100 mg/ml, emulsion 1050 μl L-carvone or 788 μl Citral, 1 hr
[16] = 37 ° C., SAF 100 mg/ml, emulsion 1050 μl L-carvone or 788 μl Citral, 3 hr
[17] = 37 ° C., SAF 100 mg/ml, emulsion 1050 μl L-carvone or 788 μl Citral, 6 hr
[18] = 37 ° C., SAF 100 mg/ml, emulsion 1050 μl L-carvone or 788 μl Citral, 9 hr
[19] = 37 ° C., SAF 100 mg/ml, emulsion 1050 μl L-carvone or 788 μl Citral, 24 hr
[20] = Rt, Bakers 250 mg/ml, emulsion 788 μl L-carvone or 525 μl Citral, 1 hr
[21] = Rt, Bakers 250 mg/ml, emulsion 788 μl L-carvone or 525 μl Citral, 3 hr
[22] = Rt, Bakers 250 mg/ml, emulsion 788 μl L-carvone or 525 μl Citral, 6 hr
[23] = Rt, Bakers 250 mg/ml, emulsion 788 μl L-carvone or 525 μl Citral, 9 hr
[24] = Rt, Bakers 250 mg/ml, emulsion 788 μl L-carvone or 525 μl Citral, 24 hr
[25] = Rt, Nutrex 100 mg/ml, emulsion 1050 μl L-carvone or 788 μl Citral, 1 hr
[26] = Rt, Nutrex 100 mg/ml, emulsion 1050 μl L-carvone or 788 μl Citral, 3 hr
[27] = Rt, Nutrex 100 mg/ml, emulsion 1050 μl L-carvone or 788 μl Citral, 6 hr
[28] = Rt, Nutrex 100 mg/ml, emulsion 1050 μl L-carvone or 788 μl Citral, 9 hr
[29] = Rt, Nutrex 100 mg/ml, emulsion 1050 μl L-carvone or 788 μl Citral, 24 hr
[30] = Rt, SAF 100 mg/ml, emulsion 1050 μl L-carvone or 788 μl Citral, 1 hr
[31] = Rt, SAF 100 mg/ml, emulsion 1050 μl L-carvone or 788 μl Citral, 3 hr
[32] = Rt, SAF 100 mg/ml, emulsion 1050 μl L-carvone or 788 μl Citral, 6 hr
[33] = Rt, SAF 100 mg/ml, emulsion 1050 μl L-carvone or 788 μl Citral, 9 hr
[34] = Rt, SAF 100 mg/ml, emulsion 1050 μl L-carvone or 788 μl Citral, 24 hr
[35] = emulsion 15 μl, 1% Tween-80 485 μl
[36] = emulsion 37.5 μl, 1% Tween-80 462.5 μl
[37] = emulsion 75 μl, 1% Tween-80 425 μl
[38] = emulsion 112.5 μl, 1% Tween-80 387.5 μl
[39] = emulsion 150 μl, 1% Tween-80 350 μl
[40] = emulsion 225 μl, 1% Tween-80 275 μl
[41] = emulsion 450 μl, 1% Tween-80 50 μl
[42] = Baker's 250 mg/ml, emulsion 125 μl L-carvone or 100 μl Citral
[43] = Levacan 217 mg/ml, emulsion 125 μl L-carvone or 100 μl Citral
[44] = Nutrex 163 mg/ml, emulsion 125 μl L-carvone or 100 μl Citral
[45] = Nutricepts 99 mg/ml, emulsion 125 μl L-carvone or 100 μl Citral
[46] = SAF Mannan 234 mg/ml, emulsion 125 μl L-carvone or 100 μl Citral
[47] = WGP 121 mg/ml, emulsion 125 μl L-carvone or 100 μl Citral
[48] = no particle, emulsion 125 μl L-carvone or 100 μl Citral in 1% Tween 80

Free Terpene (hr) [1, 5]: +
Free Terpene (hr) [1, 6]: −
Free Terpene (hr) [1, 7]: −
Free Terpene (hr) [1, 8]: −
Free Terpene (hr) [1, 9]: −
Free Terpene (hr) [1, 10]: +
Free Terpene (hr) [1, 11]: −
Free Terpene (hr) [1, 12]: −
Free Terpene (hr) [1, 13]: −
Free Terpene (hr) [1, 14]: −
Free Terpene (hr) [1, 15]: <+
Free Terpene (hr) [1, 16]: −
Free Terpene (hr) [1, 17]: −
Free Terpene (hr) [1, 18]: −
Free Terpene (hr) [1, 19]: −
Free Terpene (hr) [1, 20]: +
Free Terpene (hr) [1, 21]: −
Free Terpene (hr) [1, 22]: −
Free Terpene (hr) [1, 23]: −
Free Terpene (hr) [1, 24]: −
Free Terpene (hr) [1, 25]: +
Free Terpene (hr) [1, 26]: −
Free Terpene (hr) [1, 27]: −
Free Terpene (hr) [1, 28]: −
Free Terpene (hr) [1, 29]: −
Free Terpene (hr) [1, 30]: <+
Free Terpene (hr) [1, 31]: −
Free Terpene (hr) [1, 32]: −
Free Terpene (hr) [1, 33]: −
Free Terpene (hr) [1, 34]: −
terpene emulsion absorbed and encapsulated per 125 mg of YP [2]: at least 112.5 μl
Free Terpene [2, 35]: −
Free Terpene [2, 36]: −
Free Terpene [2, 37]: −
Free Terpene [2, 38]: −
Free Terpene [2, 39]: Sl+
Free Terpene [2, 40]: +
Free Terpene [2, 41]: +
Free Terpene [3, 42]: −
Free Terpene [3, 43]: +
Free Terpene [3, 44]: −
Free Terpene [3, 45]: +
Free Terpene [3, 46]: −
Free Terpene [3, 47]: +
Free Terpene [3, 48]: +
Free Terpene ([4]; L-carvone emulsion 150 μl, 10% Tween-80 0 μl): Sl
Free Terpene ([4]; L-carvone emulsion 150 μl, 10% Tween-80 5 μl): Sl
Free Terpene ([4]; L-carvone emulsion 150 μl, 10% Tween-80 10 μl): Sl
Free Terpene ([4]; L-carvone emulsion 150 μl, 10% Tween-80 33 μl): Sl
Compound: L-carvone

Compound: CC(C)=CCCC(C)=CC=O [Citral, citral]
Free Terpene (hr) [1, 5]: +
Free Terpene (hr) [1, 6]: −
Free Terpene (hr) [1, 7]: −
Free Terpene (hr) [1, 8]: −
Free Terpene (hr) [1, 9]: −
Free Terpene (hr) [1, 10]: +
Free Terpene (hr) [1, 11]: −
Free Terpene (hr) [1, 12]: −
Free Terpene (hr) [1, 13]: −
Free Terpene (hr) [1, 14]: −
Free Terpene (hr) [1, 15]: +
Free Terpene (hr) [1, 16]: −
Free Terpene (hr) [1, 17]: −
Free Terpene (hr) [1, 18]: −
Free Terpene (hr) [1, 19]: −
Free Terpene (hr) [1, 20]: +
Free Terpene (hr) [1, 21]: −
Free Terpene (hr) [1, 22]: −
Free Terpene (hr) [1, 23]: −
Free Terpene (hr) [1, 24]: −
Free Terpene (hr) [1, 25]: +
Free Terpene (hr) [1, 26]: −
Free Terpene (hr) [1, 27]: −
Free Terpene (hr) [1, 28]: −
Free Terpene (hr) [1, 29]: −
Free Terpene (hr) [1, 30]: +
Free Terpene (hr) [1, 31]: −
Free Terpene (hr) [1, 32]: −
Free Terpene (hr) [1, 33]: −
Free Terpene (hr) [1, 34]: −
terpene emulsion absorbed and encapsulated per 125 mg of YP [2]: at least 75 μl
Free Terpene [2, 35]: −
Free Terpene [2, 36]: −
Free Terpene [2, 37]: −
Free Terpene [2, 38]: Sl+
Free Terpene [2, 39]: +
Free Terpene [2, 40]: +
Free Terpene [2, 41]: +
Free Terpene [3, 42]: −
Free Terpene [3, 43]: +
Free Terpene [3, 44]: −
Free Terpene [3, 45]: +
Free Terpene [3, 46]: −
Free Terpene [3, 47]: +
Free Terpene [3, 48]: +
Free Terpene ([4]; Citral emulsion 113 μl, 10% Tween-80 33 μl): Sl
Free Terpene ([4]; Citral emulsion 113 μl, 10% Tween-80 100 μl): Sl
